From ChEMBL document CHEMBL1132708, “Synthesis and voltage-clamp studies of methyl 1,4-dihydro-2, 6-dimethyl-5-nitro-4-(benzofurazanyl)pyridine-3-carboxylate racemates and enantiomers and of their benzofuroxanyl analogues” (J Med Chem, 1999)

Tests used:
Assay type in all cases: functional
[1] = target: T1, Voltage-gated L-type calcium channel (Rattus norvegicus, UniProt P22002+Q02485+P27732); experiment: Percent increase in current at -20 mV on L-type [Ca2+] channels in rat RIN-m5F at 3 insulinoma cells (n = 5)
[2] = target: T1, Voltage-gated L-type calcium channel; experiment: Percent block of total Ba2+ current on L-type [Ca2+] channels in rat RIN-m5F at 3 insulinoma cells (n = 12)
[3] = target: T1, Voltage-gated L-type calcium channel; experiment: Percent increase in current at -20 mV on L-type [Ca2+] channels in rat RIN-m5F at 3 insulinoma cells (n = 8)

For CO/C(O)=C1\C(C)=NC(C)=C([N+](=O)[O-])C1c1ccc2nonc2c1 (single isomer, unassigned; (+)), the Increase [1] was 224%.
In the case of CO/C(O)=C1\C(C)=NC(C)=C([N+](=O)[O-])C1c1cccc2nonc12 (single isomer, unassigned; (+)), the Increase [2] is reported as 164%.
CO/C(O)=C1\C(C)=NC(C)=C([N+](=O)[O-])C1c1ccc2nonc2c1 (racemic) showed an Increase [3] of 247%.
